Test results reported in patent US11566007B2, “Ras inhibitors” (Revolution Medicines, Inc., priority 2019, dated 2023).

Target: KRAS G12V (Homo sapiens (Human), UniProt P01116+P62937, G12V)
Test: Ras-Raf (BRAF RBD) disruption / FRET / MOA assay, KRAS G12V
Type: biochemical
Conditions: read-out: IC50* KRAS G12V FRET data
Outline: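 TR-FRET read-out: a drop in ratio relative to DMSO wells marks disruption of the Ras:RAF complex, reported as IC50. Compounds (3-fold series, 10 points, top 30 μM final) incubated 3 h at 25° C before Eu-anti-His 10 nM and APC-anti-GST 50 nM, 1.5 h more.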

Sequence of KRAS G12V (P01116-2 other isoform, or with tags, fused parts or gaps G12V): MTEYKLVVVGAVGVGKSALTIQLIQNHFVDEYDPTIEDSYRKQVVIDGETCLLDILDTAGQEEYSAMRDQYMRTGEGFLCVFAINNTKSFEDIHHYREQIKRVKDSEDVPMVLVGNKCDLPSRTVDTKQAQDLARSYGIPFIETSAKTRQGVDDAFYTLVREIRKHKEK
Sequence of KRAS G12V (P62937 whole entry): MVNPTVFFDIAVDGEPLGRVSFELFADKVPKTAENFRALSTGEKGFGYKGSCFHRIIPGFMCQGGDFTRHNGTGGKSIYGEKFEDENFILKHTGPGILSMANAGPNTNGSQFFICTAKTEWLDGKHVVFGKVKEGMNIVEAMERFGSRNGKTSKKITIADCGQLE

Row | SMILES | IC50
1 | C=CC(=O)N1CCO[C@H]2CN(C(=O)N(C)[C@H](C(=O)N[C@H]3Cc4cccc(n4)-c4ccc5c(c4)c(c(-c4cccnc4[C@H](C)OC)n5CC(F)(F)F)CC(C)(C)COC(=O)[C@@H]4CCCN(N4)C3=O)C(C)C)C[C@H]21 (atropisomer, axis not shown) [Example A595] | 1000 to 10000 nM
2 | C=CC(=O)N1CCC2(CC1)CCN(C(=O)N(C)[C@H](C(=O)N[C@H]1Cc3nc(cs3)-c3ccc4c(c3)c(c(-c3cccnc3[C@H](C)OC)n4CC)CC(C)(C)COC(=O)[C@@H]3CCCN(N3)C1=O)C(C)C)CC2 (atropisomer, axis not shown) [Example A697] | 100 to 1000 nM
3 | C=CC(=O)N(C)C[C@@H]1CCN(C(=O)N(C)[C@H](C(=O)N[C@H]2Cc3nc(cs3)-c3ccc4c(c3)c(c(-c3cccnc3[C@H](C)OC)n4CC)CC(C)(C)COC(=O)[C@@H]3CCCN(N3)C2=O)C(C)C)C1 (atropisomer, axis not shown) [Example A654] | 100 to 1000 nM
4 | CCn1c(-c2cccnc2[C@H](C)OC)c2c3cc(ccc31)-c1cccc(c1)C[C@H](NC(=O)[C@@H](COC1CN(C(=O)C#CC(C)(C)N3CCC3)C1)C(C)C)C(=O)N1CCC[C@H](N1)C(=O)OCC(C)(C)C2 (atropisomer, axis not shown) [Example A346] | 1000 to 10000 nM
5 | CCn1c(-c2cccnc2[C@H](C)OC)c2c3cc(ccc31)C1=CCCN(C1)C[C@H](NC(=O)[C@@H](COC1CN(C(=O)C#CC(C)(C)N(C)C)C1)C(C)C)C(=O)N1CCC[C@H](N1)C(=O)OCC(C)(C)C2 (atropisomer, axis not shown) [Example A663, (2R)-2-(((1-(4-(dimethylamino)-4-methylpent-2-ynoyl)405yridine405-3-yl)oxy)methyl)-N-((6^3S,4S)-1^1-ethyl-1^2-(2-((S)-1-methoxyethyl)405yridine-3-yl)-10,10-dimethyl-5,7-dioxo-2^1,2^2,2^3,2^6,6^1,6^2,6^3,6^4,6^5,6^6-decahydro-1^1H-8-oxa-1(5,3)-indola-6(1,3)-pyridazina-2(5,1)-pyridinacycloundecaphane-4-yl)-3-methylbutanamide] | > 10000 nM
6 | CO[C@@H](C)c1ncccc1-c1c2c3cc(ccc3n1CC(F)(F)F)-c1cc(F)cc(c1)C[C@H](NC(=O)[C@@H](COC1CN(C(=O)C#CC(C)(C)N(C)C)C1)C(C)C)C(=O)N1CCC[C@H](N1)C(=O)OCC(C)(C)C2 (atropisomer, axis not shown) [Example A348] | 1000 to 10000 nM
7 | CO[C@@H](C)c1ncccc1-c1c2c3cc(ccc3n1CC(F)(F)F)N1CCO[C@@H](C[C@H](NC(=O)[C@@H](COC3CN(C(=O)C#CC(C)(C)N(C)C)C3)C(C)C)C(=O)N3CCC[C@H](N3)C(=O)OCC(C)(C)C2)C1 (atropisomer, axis not shown) [Example A375, (2R)-2-(((1-(4-(dimethylamino)-4-methylpent-2-ynoyl)azetidin-3-yl)oxy)methyl)-N-((2^2S,6^3S,4S)-1^2-(2-((S)-1-methoxyethyl)pyridin-3-yl)-10,10-dimethyl-5,7-dioxo-1^1-(2,2,2-trifluoroethyl)-6^1,6^2,6^3,6^4,6^5,6^6-hexahydro-1^1H-8-oxa-2(4,2)-morpholina-1(5,3)-indola-6(1,3)-pyridazinacycloundecaphane-4-yl)-3-methylbutanamide] | 1000 to 10000 nM
8 | C=CC(=O)NCCN1CCN(C(=O)N(C)[C@H](C(=O)N[C@H]2Cc3nc(cs3)-c3ccc4c(c3)c(c(-c3cccnc3[C@H](C)OC)n4CC)CC(C)(C)COC(=O)[C@@H]3CCCN(N3)C2=O)C(C)C)CC1 (atropisomer, axis not shown) [Example A582] | 100 to 1000 nM
9 | C=CC(=O)N1CC[C@]2(C1)OCN([C@H](C(=O)N[C@H]1Cc3cccc(c3)-c3ccc4c(c3)c(c(-c3cccnc3[C@H](C)OC)n4CC)CC(C)(C)COC(=O)[C@@H]3CCCN(N3)C1=O)C(C)C)C2=O (atropisomer, axis not shown) [Example A371] | > 10000 nM
10 | C=CC(=O)N1C[C@@H]2CN(C(=O)N(C)[C@H](C(=O)N[C@H]3Cc4nc(cs4)-c4ccc5c(c4)c(c(-c4cccnc4[C@H](C)OC)n5CC)CC(C)(C)COC(=O)[C@@H]4CCCN(N4)C3=O)C(C)C)C[C@@H]2C1 (atropisomer, axis not shown) [Example A389] | 10 to 100 nM
